Several values for one entry are separate records, joined by “and”; a condition that tells them apart may be missing. Equal values may be shown once.
System: MDA-MB-468 complex spheroids with HUVEC/MSC, viability
Test: Anticancer human tumor MDA-MB-468 cell line growth inhibition;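 also: spheroids exposed to agents for seven days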;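 as to viability, T/C: 100% = DMSO vehicle control viability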
Conditions: for viability, T/C: stronger effect = lower value
In short: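 Complex spheroids of tumor cells with HUVEC and human MSCs, exposed to iadademstat combined with other agents. Each agent tested in half-log steps from near clinical Cmax (else 10 microM top), DMSO ≤0.25%.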

[1] = curve of first compound, second compound 0.1 µM
[2] = curve of first compound, second compound 0.316 µM
[3] = curve of first compound, second compound 1 µM
[4] = curve of first compound, second compound 3.16 µM
[5] = curve of first compound, second compound 10 µM
[6] = second compound 0.1 µM, first compound 0.0316 µM
[7] = second compound 0.1 µM, first compound 0.1 µM
[8] = second compound 0.1 µM, first compound 0.316 µM
[9] = second compound 0.1 µM, first compound 1 µM
[10] = second compound 0.1 µM, first compound 3.16 µM
[11] = second compound 0.1 µM, first compound 10 µM
[12] = second compound 0.316 µM, first compound 0.0316 µM
[13] = second compound 0.316 µM, first compound 0.1 µM
[14] = second compound 0.316 µM, first compound 0.316 µM
[15] = second compound 0.316 µM, first compound 1 µM
[16] = second compound 0.316 µM, first compound 3.16 µM
[17] = second compound 0.316 µM, first compound 10 µM
[18] = second compound 1 µM, first compound 0.0316 µM
[19] = second compound 1 µM, first compound 0.1 µM
[20] = second compound 1 µM, first compound 0.316 µM
[21] = second compound 1 µM, first compound 1 µM
[22] = second compound 1 µM, first compound 3.16 µM
[23] = second compound 1 µM, first compound 10 µM
[24] = second compound 3.16 µM, first compound 0.0316 µM
[25] = second compound 3.16 µM, first compound 0.1 µM
[26] = second compound 3.16 µM, first compound 0.316 µM
[27] = second compound 3.16 µM, first compound 1 µM
[28] = second compound 3.16 µM, first compound 3.16 µM
[29] = second compound 3.16 µM, first compound 10 µM
[30] = second compound 10 µM, first compound 0.0316 µM
[31] = second compound 10 µM, first compound 0.1 µM
[32] = second compound 10 µM, first compound 0.316 µM
[33] = second compound 10 µM, first compound 1 µM
[34] = second compound 10 µM, first compound 3.16 µM
[35] = second compound 10 µM, first compound 10 µM

Compound: O=C(c1cc(Cc2n[nH]c(=O)c3ccccc23)ccc1F)N1CCN(C(=O)C2CC2)CC1 + NC1CC1c1ccc(-c2cccc(O)c2)cc1
- IC50 [1]: 909 nM
- IC50 [2]: 840 nM
- IC50 [3]: 645 nM
- IC50 [4]: 677 nM
- IC50 [5]: 144 nM
- viability, T/C [6]: 93.6%
- viability, T/C [7]: 88.1%
- viability, T/C [8]: 70.5%
- viability, T/C [9]: 52.7%
- viability, T/C [10]: 18.6%
- viability, T/C [11]: 14.2%
- viability, T/C [12]: 88.6%
- viability, T/C [13]: 88.2%
- viability, T/C [14]: 76%
- viability, T/C [15]: 46.2%
- viability, T/C [16]: 16.2%
- viability, T/C [17]: 11.9%
- viability, T/C [18]: 98.2%
- viability, T/C [19]: 82.3%
- viability, T/C [20]: 66.7%
- viability, T/C [21]: 43.4%
- viability, T/C [22]: 13.9%
- viability, T/C [23]: 8.61%
- viability, T/C [24]: 82%
- viability, T/C [25]: 75.4%
- viability, T/C [26]: 72.5%
- viability, T/C [27]: 38.7%
- viability, T/C [28]: 12.5%
- viability, T/C [29]: 7.33%
- viability, T/C [30]: 63%
- viability, T/C [31]: 51.4%
- viability, T/C [32]: 43.6%
- viability, T/C [33]: 26.6%
- viability, T/C [34]: 13.8%
- viability, T/C [35]: 8.66%

Compound: CC[C@@]1(O)C(=O)OCc2c1cc1n(c2=O)Cc2cc3c(CN(C)C)c(O)ccc3nc2-1 + NC1CCC(NC2CC2c2ccccc2)CC1
- IC50 [1]: 0.706 nM
- IC50 [2]: 0.777 nM
- IC50 [3]: 0.752 nM
- IC50 [4]: 0.62 nM
- IC50 [5]: < 0.316 nM
- viability, T/C (second compound 0.1 µM, first compound 0.000316 µM): 78%
- viability, T/C (second compound 0.1 µM, first compound 0.001 µM): 37.9%
- viability, T/C (second compound 0.1 µM, first compound 0.00316 µM): 13.1%
- viability, T/C (second compound 0.1 µM, first compound 0.01 µM): 7.64%
- viability, T/C [6]: 6.65%
- viability, T/C [7]: 4.69%
- viability, T/C (second compound 0.316 µM, first compound 0.000316 µM): 83.4%
- viability, T/C (second compound 0.316 µM, first compound 0.001 µM): 40.8%
- viability, T/C (second compound 0.316 µM, first compound 0.00316 µM): 12.7%
- viability, T/C (second compound 0.316 µM, first compound 0.01 µM): 8.5%
- viability, T/C [12]: 4.51%
- viability, T/C [13]: 4.68%
- viability, T/C (second compound 1 µM, first compound 0.000316 µM): 89.1%
- viability, T/C (second compound 1 µM, first compound 0.001 µM): 37.3%
- viability, T/C (second compound 1 µM, first compound 0.00316 µM): 12.6%
- viability, T/C (second compound 1 µM, first compound 0.01 µM): 8.19%
- viability, T/C [18]: 6.26%
- viability, T/C [19]: 5.19%
- viability, T/C (second compound 3.16 µM, first compound 0.000316 µM): 64.5%
- viability, T/C (second compound 3.16 µM, first compound 0.001 µM): 40%
- viability, T/C (second compound 3.16 µM, first compound 0.00316 µM): 15.2%
- viability, T/C (second compound 3.16 µM, first compound 0.01 µM): 11.4%
- viability, T/C [24]: 5.77%
- viability, T/C [25]: 6.13%
- viability, T/C (second compound 10 µM, first compound 0.000316 µM): 49.7%
- viability, T/C (second compound 10 µM, first compound 0.001 µM): 40.8%
- viability, T/C (second compound 10 µM, first compound 0.00316 µM): 14.1%
- viability, T/C (second compound 10 µM, first compound 0.01 µM): 8.51%
- viability, T/C [30]: 6.13%
- viability, T/C [31]: 6.82%

Compound: O=C(C=Cn1cnc(-c2cc(C(F)(F)F)cc(C(F)(F)F)c2)n1)NNc1cnccn1
- viability, T/C (compound 0.00316 µM): 39.9% and 36.5%
- viability, T/C (compound 0.01 µM): 29.8% and 27.9%
- viability, T/C (compound 0.0316 µM): 8.39% and 16.7%
- viability, T/C (compound 0.1 µM): 3.01% and 3.24%
- viability, T/C (compound 0.316 µM): 2.33% and 1.39%
- viability, T/C (compound 1 µM): 1.59% and 0.94%
- IC50 (curve of compound): < 3.16 nM

Compound: CC(C)c1c(-c2ccccc2)nc2c(C#N)c[nH]n2c1=O
- viability, T/C (compound 0.0316 µM): 111% and 87.3%
- viability, T/C (compound 0.1 µM): 101% and 89.5%
- viability, T/C (compound 0.316 µM): 91.4% and 78.7%
- viability, T/C (compound 1 µM): 101% and 96.7%
- viability, T/C (compound 3.16 µM): 92% and 101%
- viability, T/C (compound 10 µM): 72.1% and 88.9%
- IC50 (curve of compound): > 10000 nM

Compound: CC1COCCN1c1cc(C2(S(C)(=N)=O)CC2)nc(-c2ccnc3[nH]ccc23)n1 (stereo unspecified) + NC1CC1c1ccc(-c2cccc(O)c2)cc1
- IC50 [1]: 714 nM
- IC50 [2]: 771 nM
- IC50 [3]: 613 nM
- IC50 [4]: 603 nM
- IC50 [5]: 189 nM
- viability, T/C [6]: 80%
- viability, T/C [7]: 88.2%
- viability, T/C [8]: 65.3%
- viability, T/C [9]: 42.1%
- viability, T/C [10]: 22%
- viability, T/C [11]: 9.29%
- viability, T/C [12]: 95.1%
- viability, T/C [13]: 104%
- viability, T/C [14]: 62.3%
- viability, T/C [15]: 47.7%
- viability, T/C [16]: 20.8%
- viability, T/C [17]: 7.91%
- viability, T/C [18]: 95.3%
- viability, T/C [19]: 80.5%
- viability, T/C [20]: 69.5%
- viability, T/C [21]: 36.2%
- viability, T/C [22]: 17.8%
- viability, T/C [23]: 7.07%
- viability, T/C [24]: 96.4%
- viability, T/C [25]: 101%
- viability, T/C [26]: 67.1%
- viability, T/C [27]: 34.6%
- viability, T/C [28]: 17.9%
- viability, T/C [29]: 7.17%
- viability, T/C [30]: 64.4%
- viability, T/C [31]: 59.7%
- viability, T/C [32]: 42%
- viability, T/C [33]: 28.8%
- viability, T/C [34]: 15.8%
- viability, T/C [35]: 6.83%

Compound: CCc1c2c(nc3ccc(O)cc13)-c1cc3c(c(=O)n1C2)COC(=O)[C@]3(O)CC + NC1CCC(NC2CC2c2ccccc2)CC1
- IC50 [1]: < 0.949 nM
- IC50 [2]: < 0.949 nM
- IC50 [3]: < 0.949 nM
- IC50 [4]: < 0.949 nM
- IC50 [5]: < 0.949 nM
- viability, T/C (second compound 0.1 µM, first compound 0.000949 µM): 7.86%
- viability, T/C (second compound 0.1 µM, first compound 0.003 µM): 7.19%
- viability, T/C (second compound 0.1 µM, first compound 0.00949 µM): 4.23%
- viability, T/C (second compound 0.1 µM, first compound 0.03 µM): 3.08%
- viability, T/C (second compound 0.1 µM, first compound 0.0949 µM): 2.21%
- viability, T/C (second compound 0.1 µM, first compound 0.3 µM): 2.02%
- viability, T/C (second compound 0.316 µM, first compound 0.000949 µM): 6.84%
- viability, T/C (second compound 0.316 µM, first compound 0.003 µM): 5.38%
- viability, T/C (second compound 0.316 µM, first compound 0.00949 µM): 3.66%
- viability, T/C (second compound 0.316 µM, first compound 0.03 µM): 3.28%
- viability, T/C (second compound 0.316 µM, first compound 0.0949 µM): 1.33%
- viability, T/C (second compound 0.316 µM, first compound 0.3 µM): 2.06%
- viability, T/C (second compound 1 µM, first compound 0.000949 µM): 6.78%
- viability, T/C (second compound 1 µM, first compound 0.003 µM): 6.71%
- viability, T/C (second compound 1 µM, first compound 0.00949 µM): 4.78%
- viability, T/C (second compound 1 µM, first compound 0.03 µM): 2.79%
- viability, T/C (second compound 1 µM, first compound 0.0949 µM): 1.75%
- viability, T/C (second compound 1 µM, first compound 0.3 µM): 2.02%
- viability, T/C (second compound 3.16 µM, first compound 0.000949 µM): 7.33%
- viability, T/C (second compound 3.16 µM, first compound 0.003 µM): 4.42%
- viability, T/C (second compound 3.16 µM, first compound 0.00949 µM): 4.73%
- viability, T/C (second compound 3.16 µM, first compound 0.03 µM): 3.2%
- viability, T/C (second compound 3.16 µM, first compound 0.0949 µM): 2.84%
- viability, T/C (second compound 3.16 µM, first compound 0.3 µM): 1.88%
- viability, T/C (second compound 10 µM, first compound 0.000949 µM): 6.82%
- viability, T/C (second compound 10 µM, first compound 0.003 µM): 5.98%
- viability, T/C (second compound 10 µM, first compound 0.00949 µM): 4.27%
- viability, T/C (second compound 10 µM, first compound 0.03 µM): 3.39%
- viability, T/C (second compound 10 µM, first compound 0.0949 µM): 2.46%
- viability, T/C (second compound 10 µM, first compound 0.3 µM): 2.29%

Compound: COc1cc(Nc2ncc3c(n2)-c2ccc(Cl)cc2C(c2c(F)cccc2OC)=NC3)ccc1C(=O)O
- viability, T/C (compound 0.00316 µM): 69.6% and 17.2%
- viability, T/C (compound 0.01 µM): 28.3% and 7.92%
- viability, T/C (compound 0.0316 µM): 17.4% and 5.89%
- viability, T/C (compound 0.1 µM): 8.67% and 6.08%
- viability, T/C (compound 0.316 µM): 7.8% and 4.66%
- viability, T/C (compound 1 µM): 7.38% and 3%
- IC50 (curve of compound): 5.54 nM and < 3.16 nM

From PubChem BioAssay AID1918954 (Molecular Pharmacology Branch, DTP, NCI, 2023)
